Results on one molecule are retold here after patent US6271205A, “Cancer treatment by expression of differentiation factor receptor” (University of Massachusetts Medical Center, priority 1997, dated 2001).

The assay has as its system C6 rat glioma cells. Kind of assay: Induction of cell cycle arrest in C6 cells with aphidicolin. The format is cell-based. The note with it: 0.3 μM aphidicolin, 5 days. As to the method: SH-SY5Y cells were grown at 37° C. in RPMI 1640 medium (GIBCO BRL, Gaithersburg, Md.) supplemented with 10% fetal bovine serum (Sigma Chemicals, St. Louis, Mo.) and 100 μg/ml of gentamicin. For differentiation studies, cells were plated (1.5×10^5 to 5×10^5 cells/dish) in 35-mm Primaria dishes (Falcon, Franklin Lakes, N.J.). One hundred ng/ml NGF (2.5 S; Bioproducts for Science, Indianapolis, Ind.) and/or 0.3 μM aphidicolin (Sigma Chemicals, St. Louis, Mo.) were added every 2-3 days. Cell proliferation was assessed by BrdU labeling, as described by LoPresti et al. (Cell Growth Diff. (1992) 3:627-635).
0.3 μM aphidicolin (Sigma, St. Louis Mo.) was added to logarithmically growing C6 rat glioma cells (ATCC, CCL 107, Rockville, Md.) in MEM medium supplemented with 10% fetal bovine serum (Sigma, St. Louis, Mo.). After 5 days incubation, growth arrested cells were removed with trypsin and 2.0×10^4 cells were seeded on polyornithine coated coverslips (polyornithine hydrobromide, Sigma) containing aphidicolin supplemented media for another five days in 24-well plates. Coverslips were then fixed in either methanol (10 minutes at -20° C.) or 4% paraformaldehyde (20 minutes at room temperature) for immunohistochemical analysis.
Less than 5% of cells were stained to any extent with antibodies to GFAP, medium and heavy chain neurofilament (SMI-312) or MAP-2. […]

For `C[C@@]1(CO)[C@H](O)CC[C@@]2(C)[C@H]1CC[C@H]1C[C@@H]3C[C@@]12CC[C@]3(O)CO` [aphidicolin], the “cells extending branched complex neurite-like processes” value was 48%. Further, where the note is “MEM + 10% FBS, untreated cells 52%”, the “BrDU labeling (proliferation)” value was determined as 7.2%.
